Experimental data as given in PMC6028563, “Probing Substituents in the 1- and 3-Position: Tetrahydropyrazino-Annelated Water-Soluble Xanthine Derivatives as Multi-Target Drugs With Potent Adenosine Receptor Antagonistic Activity” (Frontiers in Chemistry, 2018).

Experiments:
[1] = target: T1, human A1 AR (Homo sapiens, UniProt P30542); experiment: Radioligand binding assay at human A1 AR vs. [^3H]CCPA; conditions: human (h); CHO cell membranes; n = 3
T1 construct: expressed in transfected cells; host or cells: CHO cells
T1 sequence (P30542 1-326): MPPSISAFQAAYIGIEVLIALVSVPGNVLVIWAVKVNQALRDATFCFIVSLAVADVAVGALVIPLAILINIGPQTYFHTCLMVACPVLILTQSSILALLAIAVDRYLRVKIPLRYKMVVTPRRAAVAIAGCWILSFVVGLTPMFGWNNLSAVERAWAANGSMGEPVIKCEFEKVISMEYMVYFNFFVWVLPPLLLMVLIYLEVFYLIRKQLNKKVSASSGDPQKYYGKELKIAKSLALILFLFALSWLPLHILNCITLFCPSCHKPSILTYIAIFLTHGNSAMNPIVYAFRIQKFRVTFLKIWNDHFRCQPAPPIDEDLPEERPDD
Experimental: (§1) Membrane preparations and radioligand binding assays at rat A1 (rat brain cortex) and rat A2A ARs (rat brain striatum) were performed as previously described (Ozola et al., [2003]; Alnouri et al., [2015]). For assays at human A1, A2A, A2B, and A3 ARs, CHO cell membranes expressing one of the human AR subtypes were used as previously reported (Klotz et al., [1998]; Alnouri et al., [2015]; De Filippo et al., [2016]).
(§2) The synthesized tetrahydropyrazino[2,1-f ]purinediones 13–20 were evaluated in radioligand binding assays for their affinity to A1 ARs of rat brain cortical membrane and to A2A ARs of rat brain striatal membrane preparations. Selected compounds were further investigated for their affinity to human A1 and A2A ARs recombinantly expressed in Chinese hamster ovary (CHO) cells. All compounds were additionally investigated for their affinity to human A2B and A3 ARs recombinantly expressed in CHO cells to determine their AR subtype selectivity. […] It is well known that all xanthine derivatives lacking a ribose moiety, including tricyclic compounds, can only block ARs, but never act as AR agonists; therefore, additional functional studies were not required. […] Potent MAO-B inhibitors were additionally investigated for inhibition of human MAO-A to assess their selectivity. Results are presented in Tables 1–6, and data of standard ligands are included for comparison.

[2] = target: T2, rat A1 AR (Rattus norvegicus, UniProt P25099); experiment: Radioligand binding assay at rat A1 AR (rat brain cortex) vs. [^3H]CCPA; conditions: rat (r); rat brain cortex; n = 3
T2 construct: A1 ARs of rat brain cortical membrane; from tissue; host or cells: rat brain cortex membranes
T2 sequence (P25099 1-326): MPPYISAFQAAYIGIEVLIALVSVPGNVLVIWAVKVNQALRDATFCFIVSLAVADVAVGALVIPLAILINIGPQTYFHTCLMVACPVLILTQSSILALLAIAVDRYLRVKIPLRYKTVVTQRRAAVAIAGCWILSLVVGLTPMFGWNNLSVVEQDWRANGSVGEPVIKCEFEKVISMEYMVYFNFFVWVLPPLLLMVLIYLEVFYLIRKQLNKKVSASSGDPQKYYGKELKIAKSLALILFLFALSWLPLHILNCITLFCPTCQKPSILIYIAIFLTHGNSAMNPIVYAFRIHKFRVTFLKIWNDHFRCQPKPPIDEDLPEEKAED
Method in brief: (§3)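 Source of receptor: rat brain cortex (A1), rat brain striatum (A2A), recombinant CHO cell membranes (human subtypes). Binding only.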

[3] = target: T3, human A2A AR (Homo sapiens, UniProt P29274); experiment: Radioligand binding assay at human A2A AR vs. [^3H]MSX-2; conditions: CHO cell membranes, n = 3, read-out: Ki ± SEM, A2A vs. [^3H]MSX-2
T3 construct: expressed in transfected cells; host or cells: CHO cells
T3 sequence (P29274 whole entry): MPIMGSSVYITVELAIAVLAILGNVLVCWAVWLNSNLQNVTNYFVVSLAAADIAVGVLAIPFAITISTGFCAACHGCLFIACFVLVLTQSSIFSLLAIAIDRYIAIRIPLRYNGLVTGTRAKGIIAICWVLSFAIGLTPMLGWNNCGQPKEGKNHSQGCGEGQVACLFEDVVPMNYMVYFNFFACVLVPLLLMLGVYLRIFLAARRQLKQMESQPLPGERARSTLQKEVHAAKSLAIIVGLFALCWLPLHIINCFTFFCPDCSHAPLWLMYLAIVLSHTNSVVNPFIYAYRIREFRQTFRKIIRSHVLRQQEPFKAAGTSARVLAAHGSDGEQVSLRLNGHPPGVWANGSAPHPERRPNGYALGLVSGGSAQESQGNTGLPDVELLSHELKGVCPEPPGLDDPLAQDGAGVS
Experimental: as §1, §2

[4] = target: T4, rat A2A AR (Rattus norvegicus, UniProt P30543); experiment: Radioligand binding assay at rat A2A AR (rat brain striatum) vs. [^3H]MSX-2; conditions: rat (r); rat brain striatum; n = 3; read-out: Ki ± SEM, A2A vs. [^3H]MSX-2
T4 construct: A2A ARs of rat brain striatal membrane preparations; from tissue; host or cells: rat brain striatum membranes
T4 sequence (P30543 whole entry): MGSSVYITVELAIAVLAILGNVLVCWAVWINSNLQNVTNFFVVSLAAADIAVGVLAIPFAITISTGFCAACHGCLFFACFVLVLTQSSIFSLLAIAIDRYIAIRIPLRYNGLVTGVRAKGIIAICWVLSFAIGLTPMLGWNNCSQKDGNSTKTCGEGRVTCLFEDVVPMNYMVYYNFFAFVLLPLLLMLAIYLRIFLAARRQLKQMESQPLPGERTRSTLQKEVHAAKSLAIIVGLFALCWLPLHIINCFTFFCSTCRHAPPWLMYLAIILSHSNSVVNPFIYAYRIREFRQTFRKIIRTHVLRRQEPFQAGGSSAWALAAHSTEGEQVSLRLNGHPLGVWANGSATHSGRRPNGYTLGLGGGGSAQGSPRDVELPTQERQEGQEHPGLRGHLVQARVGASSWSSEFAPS
Method in brief: as §3

[5] = target: T5, human A2B AR (Homo sapiens, UniProt P29275); experiment: Radioligand binding assay at human A2B AR vs. [^3H]PSB-603; conditions: for Ki: CHO cell membranes, n = 2 (n = 3 where marked a), read-out: Ki ± SEM, A2B vs. [^3H]PSB-603; for inhibition at 1 µM: at 1,000 nM, read-out: % inhibition of radioligand binding at indicated concentration, A2B vs. [^3H]PSB-603
T5 construct: expressed in transfected cells; host or cells: CHO cells
T5 sequence (P29275 1-332): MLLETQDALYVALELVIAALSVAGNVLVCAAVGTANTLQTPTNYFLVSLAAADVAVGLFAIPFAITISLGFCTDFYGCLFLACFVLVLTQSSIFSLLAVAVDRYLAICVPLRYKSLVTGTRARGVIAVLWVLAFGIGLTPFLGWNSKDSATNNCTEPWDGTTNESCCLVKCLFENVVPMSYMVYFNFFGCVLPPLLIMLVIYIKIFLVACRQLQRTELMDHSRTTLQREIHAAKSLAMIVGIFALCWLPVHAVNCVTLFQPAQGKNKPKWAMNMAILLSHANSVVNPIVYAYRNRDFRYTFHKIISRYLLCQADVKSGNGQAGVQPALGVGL
Method in brief: as §3

[6] = target: T6, human A3 AR (Homo sapiens, UniProt P0DMS8); experiment: Radioligand binding assay at human A3 AR vs. [^3H]PSB-11; conditions: for Ki: CHO cell membranes, n = 2 (n = 3 where marked a), read-out: Ki ± SEM, A3 vs. [^3H]PSB-11; for inhibition at 10 µM: at 10,000 nM, read-out: % inhibition of radioligand binding at indicated concentration, A3 vs. [^3H]PSB-11
T6 construct: expressed in transfected cells; host or cells: CHO cells
T6 sequence (P0DMS8 1-318): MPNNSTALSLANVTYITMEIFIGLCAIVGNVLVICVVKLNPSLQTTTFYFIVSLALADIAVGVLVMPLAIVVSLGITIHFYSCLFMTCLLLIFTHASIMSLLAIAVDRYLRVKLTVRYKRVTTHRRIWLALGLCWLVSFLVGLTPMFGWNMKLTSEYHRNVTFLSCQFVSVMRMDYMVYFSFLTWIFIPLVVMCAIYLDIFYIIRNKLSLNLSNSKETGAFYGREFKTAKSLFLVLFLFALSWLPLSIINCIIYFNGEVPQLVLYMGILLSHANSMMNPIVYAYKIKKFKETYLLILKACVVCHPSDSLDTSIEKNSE
Method in brief: as §3

[7] = target: T7, recombinant human MAO-B (Homo sapiens, UniProt P27338); experiment: Monoamine oxidase assay (Amplex Red), MAO-B; format: biochemical; conditions: for inhibition at 10 µM: at 10,000 nM (10 μM), read-out: % inhibition at indicated concentration, Human MAO-B; for IC50: n = 3, read-out: IC50 ± SEM, Human MAO-B
T7 construct: purchased Sigma-Aldrich M7441; host or cells: baculovirus-infected insect cells
T7 sequence (P27338 1-520): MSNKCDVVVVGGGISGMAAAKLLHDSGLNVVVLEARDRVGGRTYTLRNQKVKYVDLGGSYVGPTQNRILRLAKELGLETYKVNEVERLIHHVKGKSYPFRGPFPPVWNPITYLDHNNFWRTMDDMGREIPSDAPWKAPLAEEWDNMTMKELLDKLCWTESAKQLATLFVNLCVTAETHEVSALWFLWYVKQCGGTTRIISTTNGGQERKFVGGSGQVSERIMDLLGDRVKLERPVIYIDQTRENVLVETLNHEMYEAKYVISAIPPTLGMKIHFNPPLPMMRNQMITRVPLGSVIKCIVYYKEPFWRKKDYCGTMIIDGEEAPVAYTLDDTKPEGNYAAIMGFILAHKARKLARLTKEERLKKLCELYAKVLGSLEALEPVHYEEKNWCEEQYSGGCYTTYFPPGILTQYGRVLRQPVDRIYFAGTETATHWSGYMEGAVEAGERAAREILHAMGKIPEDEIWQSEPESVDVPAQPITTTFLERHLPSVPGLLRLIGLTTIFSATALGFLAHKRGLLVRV
Method in brief: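 Inhibition was measured with an Amplex Red monoamine oxidase assay, using human MAO-A and MAO-B produced recombinantly in baculovirus-infected insect cells. For rat MAO-B, liver mitochondria-enriched fractions from male Sprague Dawley rats served as enzyme source.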

Compound | Ki [1] | Ki [2] | Ki [3] | Ki [4] | Ki [5] | inhibition at 1 µM [5] | Ki [6] | inhibition at 10 µM [6] | inhibition at 10 µM [7] | IC50 [7]
C#CCn1c(=O)c2c(nc3n2CCN(c2ccc(F)cc2)C3)n(CC)c1=O [Compound 20b, 1-ethyl-8-(4-fluorophenyl)-3-propargyl-6,7,8,9-tetrahydropyrazino[2,1-f]purine-2,4(1H,3H)-dione] | 1530 nM | 410 ± 60 nM | 378 ± 49 nM | 128 ± 20 nM | > 1000 nM | 15% | 2390 nM | – | 35% | > 10000 nM
C#CCn1c(=O)c2c(nc3n2CCN(Cc2ccccc2OC)C3)n(CC)c1=O [Compound 20f, 1-ethyl-8-(2-methoxybenzyl)-3-propargyl-6,7,8,9-tetrahydropyrazino[2,1-f]purine-2,4(1H,3H)-dione] | 210 ± 90 nM | 32.7 ± 5.8 nM | 311 ± 106 nM | 1200 nM | > 1000 nM | 18% | 7640 nM | – | 27% | > 10000 nM
C#CCn1c(=O)c2c(nc3n2CCN(CCc2ccccc2)C3)n(CC)c1=O [Compound 20h, 1-ethyl-8-phenethyl-3-propargyl-6,7,8,9-tetrahydropyrazino[2,1-f]purine-2,4(1h,3h)-dione] | 2440 nM | 117 ± 2 nM | 149 ± 28 nM | 1700 nM | > 1000 nM | 16% | > 10000 nM | 36% | 27% | > 10000 nM
C#CCn1c(=O)c2c(nc3n2CCN(CCc2cccc(OC)c2)C3)n(CC)c1=O [Compound 20j, 1-ethyl-8-(3-methoxyphenethyl)-3-propargyl-6,7,8,9-tetrahydropyrazino[2,1-f]purine-2,4(1H,3H)-dione] | 1020 nM | 669 ± 35 nM | 25500 nM | 798 ± 134 nM | > 1000 nM | 11% | > 10000 nM | 13% | 30% | > 10000 nM

Next, values leading:

Ki [1] | Ki [2] | Ki [3] | Ki [4] | Ki [5] | inhibition at 1 µM [5] | Ki [6] | inhibition at 10 µM [6] | inhibition at 10 µM [7] | IC50 [7] | Compound
189 ± 29 nM | 172 ± 28 nM | 663 ± 54 nM | 895 ± 210 nM | > 1000 nM | 30% | > 10000 nM | 29% | 32% | > 10000 nM | CCn1c(=O)c2c(nc3n2CCN(Cc2cccc(C(F)(F)F)c2F)C3)n(CC)c1=O [Compound 15h, 1,3-diethyl-8-(2-fluoro-3-(trifluoromethyl)benzyl)-6,7,8,9-tetrahydropyrazino[2,1-f]purine-2,4(1H,3H)-dione]
180 ± 28 nM | 118 ± 28 nM | 282 ± 38 nM | 245 ± 39 nM | > 1000 nM | 2% | > 10000 nM | 35% | 20% | > 10000 nM | C#CCn1c(=O)c2c(nc3n2CCN(Cc2ccccc2)C3)n(CC)c1=O [Compound 20e, 8-benzyl-1-ethyl-3-propargyl-6,7,8,9-tetrahydropyrazino[2,1-f]purine-2,4(1H,3H)-dione]
124 ± 90 nM | 118 ± 22 nM | 542 ± 169 nM | 769 ± 77 nM | > 1000 nM | 22% | > 10000 nM | 40% | 41% | > 10000 nM | C#CCn1c(=O)c2c(nc3n2CCN(Cc2cccc(OC)c2)C3)n(CC)c1=O [Compound 20g, 1-ethyl-8-(3-methoxybenzyl)-3-propargyl-6,7,8,9-tetrahydropyrazino[2,1-f]purine-2,4(1H,3H)-dione]
1260 nM | 701 ± 204 nM | 3230 nM | 883 ± 265 nM | > 1000 nM | 24% | 5830 nM | – | 26% | > 10000 nM | C#CCn1c(=O)c2c(nc3n2CCN(CCc2ccccc2OC)C3)n(CC)c1=O [Compound 20i, 1-ethyl-8-(2-methoxyphenethyl)-3-propargyl-6,7,8,9-tetrahydropyrazino[2,1-f]purine-2,4(1H,3H)-dione]
